Legend:
[1] = molecular target: T1, ATA-117-Rd11 (Arthrobacter sp. KNK168, UniProt F7J696, S8P/Y60F/L61Y/H62T/V65A/V69T/D81G/M94I/I96L/F122M/S124T/S126T/G136F/Y150S/V152C/A169L/V199I/A209L/G215C/G217N/S223P/L269P/L273Y/T282S/A284G/P297S/S321P); test: X-ray crystal structure, […] Å; assay type: binding; conditions: covalent; internal aldimine
T1 construct: gene TAS; synthetic gene, pET28a N-His tag, thrombin cleaved; E. coli; homodimer

[2] = molecular target: T2, Ab-R-ATA (Arthrobacter sp. KNK168, UniProt F7J696); test: HPLC of acetophenone formed, initial kinetics; assay type: biochemical; conditions: 10 mM (R)-1-phenylethylamine as amino donor, 0.5 mM PLP, 100 mM Tris-HCl pH 8.5, 30 °C
T2 construct: gene TAS; full length, 330 amino acids, no tag, pUCNT vector, E. coli Rosetta (DE3); homodimer, active site formed with loop 129-145 of the other protomer
Excerpt: (§1) HPLC of acetophenone formed, initial kinetics on Ab-R-ATA | The kcat/Km values for pyruvate of the R138A and the R138Q mutants

[3] = molecular target: T3, Ab-R-ATA (Arthrobacter sp. KNK168, UniProt F7J696, R138Q, form not given); test: HPLC of acetophenone formed, initial kinetics; assay type: biochemical; conditions: 10 mM (R)-1-phenylethylamine as amino donor, 0.5 mM PLP, 100 mM Tris-HCl pH 8.5, 30 °C
T3 construct: gene TAS; full length, 330 amino acids, no tag, pUCNT vector, E. coli Rosetta (DE3); homodimer, active site formed with loop 129-145 of the other protomer
Excerpt: as §1

| SMILES | X-ray crystal structure, 2.20 Å [1] | Km [2] | Km [3] |
| --- | --- | --- | --- |
| Cc1ncc(COP(=O)(O)O)c(C=O)c1O [PLP] | The cofactor PLP in the active site is shown as green sticks |  |  |
| CC(=O)C(=O)O [pyruvate] |  | 5.8 ± 0.1 mM | 66 ± 3 mM |
